{"source": "patent US20240366609A1", "about": "(Genentech, Inc., priority 2021, published 2024)", "key": {"[1]": {"assay": "Phase 1a/b study NCT03284502: pharmacokinetic analysis", "type": "in vivo, human", "settings": "steady-state, dose normalized"}, "[2]": {"assay": "plasma protein binding of cobimetinib", "type": "in vitro ADME", "settings": "concentration-independent"}, "[3]": {"test_system": "SK-MEL-30 human melanoma cell line harboring NRAS^Q61K mutation", "assay": "SK-MEL-30 xenograft, belvarafenib and cobimetinib (Example 7)", "settings": "10 mg/kg QD orally, 14 days", "experimental": "(§1) Tumor volume in mm^3 and body weight change were measured at days 1, 4, 9 and 15.\n(§2) Maximum inhibition rate (max inhib (%)) was determined by (1−(mean relative tumor weight in treated group/mean relative tumor weight control group))*100."}, "[4]": {"test_system": "SK-MEL-30 human melanoma cell line harboring NRAS^Q61K mutation", "settings": "mouse, in vivo, po", "experimental": "as §1, §2"}, "[5]": {"assay": "clinical pharmacokinetics of cobimetinib", "settings": "for half-life: oral administration"}, "[6]": {"assay": "atezolizumab Study PCD4989g", "type": "in vivo, human", "settings": "single agent", "protocol": "The pharmacokinetics of atezolizumab administered as a single agent have been characterized based on clinical data from study PCD4989g and are consistent with a currently ongoing Phase III Study WO29522 in first line treatment of TNBC. Atezolizumab anti-tumor activity has been observed across doses from 1 to 20 mg/kg. […] Atezolizumab dosing schedules of q3w and q2w have been tested. A fixed dose of atezolizumab 800 mg every two weeks (q2w) (equivalent to a body weight-based dose of 10 mg/kg q2w) results in equivalent exposure to the Phase III dose of 1200 mg administered every three weeks (q3w). The q3w schedule is being used in multiple Phase III studies of atezolizumab monotherapy across multiple tumor types and the q2w predominantly used in combination with chemotherapy regimens."}, "melanoma": {"test_system": "melanoma", "settings": "patients who have previously undergone anti-PD-1 treatment; cited from earlier work"}, "[7]": {"test_system": "Calu-6 NSCLC cell line harboring KRAS^Q61K mutation", "assay": "Calu-6 xenograft, belvarafenib and selumetinib (Example 10)", "type": "in vivo, mice", "settings": "17 days"}, "advanced melanoma": {"test_system": "advanced melanoma", "settings": "cited from earlier work"}, "[8]": {"test_system": "SK-MEL-30 melanoma cell line harboring NRAS^Q61K mutation", "assay": "SK-MEL-30 xenograft, belvarafenib and binimetinib (Example 9)", "type": "in vivo, mice", "settings": "21 days"}}, "data": [{"molecule": "O=C(c1ccc(F)c(F)c1Nc1ccc(I)cc1F)N1CC(O)([C@@H]2CCCCN2)C1", "note": "[Cobimetinib, (S)-[3,4-Difluoro-2-(2-fluoro-4-iodophenylamino)phenyl][3-hydroxy-3-(piperidin-2-yl)azetidin-1-yl]methanone]", "values": [{"measurement": "drug-drug interaction with belvarafenib impacting cobimetinib exposure", "setting": "[1]", "value": "no apparent drug-drug interaction"}, {"measurement": "binding to plasma proteins", "setting": "[2]", "value": 95, "unit": "%"}, {"measurement": "Day for max inhib", "setting": "[3]", "value": "Day 15"}, {"measurement": "Max inhib. Rate (%)", "setting": "[3]", "value": 54.3, "unit": "%"}, {"measurement": "tolerability", "setting": "[4]", "value": "well tolerated without body weight loss"}, {"measurement": "pharmacokinetics in the fed state compared with the fasted state", "setting": "[5]; healthy subjects", "value": "not altered"}, {"measurement": "bioavailability", "setting": "[5]; human, in vivo, oral", "value": 45.9, "unit": "%"}, {"measurement": "Tmax", "setting": "[5]; human, in vivo, po", "value": "1 to 3", "unit": "h"}, {"measurement": "half-life", "setting": "[5]; human, in vivo, po, mean terminal half-life (t½)", "value": 2930, "unit": "min"}, {"measurement": "half-life", "setting": "[5]; human, in vivo, po, terminal half-life (t½), range", "value": "1390 to 4800", "unit": "min"}, {"measurement": "effect of the proton pump inhibitor rabeprazole on cobimetinib pharmacokinetics", "setting": "[5]; presence or absence of a high-fat meal", "value": "minimal effect"}]}, {"molecule": "Atezolizumab: humanized IgG1 monoclonal antibody that targets PD-L1", "values": [{"measurement": "Kaplan-Meier estimated overall 24-week progression-free survival (PFS) rate", "setting": "[6]", "value": 33, "unit": "%"}]}, {"molecule": "ipilimumab: anti-CTLA4 immunotherapy agent", "values": [{"measurement": "response rate", "setting": "melanoma", "value": "approximately 15%"}]}, {"molecule": "Cn1cnc2c(F)c(Nc3ccc(Br)cc3Cl)c(C(=O)NOCCO)cc21", "note": "[Selumetinib, reference compound]", "values": [{"measurement": "Day for max inhib", "setting": "[7]; 5 mg/kg BID orally", "value": "Day 18"}, {"measurement": "Max inhib. Rate (%)", "setting": "[7]; 5 mg/kg BID orally", "value": 59.0, "unit": "%"}, {"measurement": "Max weight loss (%)", "setting": "[7]; 5 mg/kg BID orally", "value": 1.5, "unit": "%"}, {"measurement": "tolerability", "setting": "[7]; single agent", "value": "well tolerated with or without minimal body weight loss"}]}, {"molecule": "nivolumab: anti-PD-1 immunotherapy agent, monotherapy arm of a Phase III trial", "values": [{"measurement": "median OS", "setting": "advanced melanoma; 5 years minimum follow-up", "value": 36.9, "unit": "months"}, {"measurement": "PFS", "setting": "advanced melanoma; Phase III trial of 1296 patients", "value": 6.9, "unit": "months"}]}, {"molecule": "Cn1cnc2c(F)c(Nc3ccc(Br)cc3F)c(C(=O)NOCCO)cc21", "note": "[Binimetinib]", "values": [{"measurement": "Day for max inhib", "setting": "[8]; 10 mg/kg QD orally", "value": "Day 21"}, {"measurement": "Max inhib. Rate (%)", "setting": "[8]; 10 mg/kg QD orally", "value": 13.6, "unit": "%"}, {"measurement": "Max weight loss (%)", "setting": "[8]; 10 mg/kg QD orally", "value": 0.8, "unit": "%"}, {"measurement": "Day for max inhib", "setting": "[8]; 30 mg/kg QD orally", "value": "Day 21"}, {"measurement": "Max inhib. Rate (%)", "setting": "[8]; 30 mg/kg QD orally", "value": 27.1, "unit": "%"}, {"measurement": "tolerability", "setting": "[8]; single agent, 10 and 30 mg/kg q.d.", "value": "well tolerated without marked body weight loss"}]}]}
